In patent US20140154666A1, “Erythrocyte Preservation Method” (Trustees of Dartmouth College, priority 2012, published 2014):

Experiments:
erythrocyte concentrate [1] = assay: Hemolysis of erythrocyte concentrate after 42 days of refrigerated storage; type: cell-based; conditions: FIG. 1
Source text: (§1) Referring now to FIGS. 1-2, test results of two different erythrocyte concentrates are illustrated. The first erythrocyte concentrate is identified by, number 2032 and the second erythrocyte concentrate is identified by number 2086. Each of the samples was divided into four different containers. […] Also, for each sample, two of the containers included a gas system of 99.9% by volume xenon gas. The graphs indicate which container included or were absent xenon gas and/or DEHP plasticiser. The testing protocol for the containers was as follows:
(§2) For Containers That Are Absent Xe Gas:
(§3) a. Place non-Xe units flat on a rotator for 3.5 hours.
(§4) b. Place non-Xe units in blood bank refrigerator at the same time as the Xe units.
(§5) For Containers That Include Xe Gas:
(§6) a. Place Xe units flat in a pretested hyperatmic chamber.
(§7) b. Evacuate the chamber with vacuum to remove oxygen from the Xe units.
(§8) c. Pressurize the chamber with Xe gas at 4 atm.
(§9) d. Vent the chamber of Xe gas.
(§10) e. Pressurize the chamber with Xe gas at 4 atm.
(§11) f Vent the chamber of Xe gas.
(§12) g. Pressurize the chamber with Xe gas at 4 atm.
(§13) h. Vent the chamber of Xe gas.
(§14) i. Pressurize the chamber with Xe gas at 4 atm.
(§15) j. Place the pressurized Xe unit on an agitator for 3.5 h.
k. Place the pressurized Xe unit in a blood bank refrigerator at the same time as the non-Xe units.
While the Xe units and non-Xe units are in the blood bank refrigerator, the Xe units were periodically checked over a 42 day period to ensure that the pressure in the Xe units exceeded 1 atm. After 42 days, all of the units were removed from the blood bank refrigerator. After the units were removed from the blood bank refrigerator, the following procedures where conducted on the units:
1. Immediately place the pressurized Xe units and non-Xe units on a platelet to and-fro horizontal agitator for 10 minutes.
2. Depressurize all of the units by opening a value on the container.
3. Place all units on a bench top and hold for 3 hours.
4. Following the 3 hour hold period, test the samples for percentage of hemolysis and the ATP content.

erythrocyte concentrate [2] = assay: ATP content of erythrocyte concentrate after 42 days of refrigerated storage; type: cell-based; conditions: FIG. 2, samples 2032 and 2086, 99.9% by volume xenon gas, treated vs not treated
Source text: as §1, §2, §3, §4, §5, §6, §7, §8, §9, §10, §11, §12, §13, §14, §15
k. Place the pressurized Xe unit in a blood bank refrigerator at the same time as the non-Xe units. […]

erythrocyte concentrate [3] = conditions: presence of DEHP plasticizer in the storage container; cited from earlier work

Row | Compound | amounts of hemolysis (erythrocyte concentrate [1]; 42 days, xenon gas with no DEHP plasticiser vs container with DEHP plasticiser and no xenon gas) | percent of hemolysis (erythrocyte concentrate [1]; samples 2032 and 2086, 99.9% by volume xenon gas at 4 atm, 42 days in blood bank refrigerator, treated vs not treated with xenon gas) | ATP content in the erythrocyte concentrate (erythrocyte concentrate [2]) | hemolysis (erythrocyte concentrate [1]; 42 days, DEHP plasticiser added to a container that included xenon gas) | amounts of hemolysis (erythrocyte concentrate [1]; 42 days, containers that include DEHP plasticiser vs containers without) | number of erythrocytes that lysed during the storage of the erythrocyte concentrate (erythrocyte concentrate [3])
1 | [Xe] [xenon gas, Xenon] | lower amounts of hemolysis | significantly less | higher ATP content | – | – | –
2 | CCCCC(CC)COC(=O)c1ccccc1C(=O)OCC(CC)CCCC (stereo not drawn) [DEHP plasticiser, his (2-ethylhexyl) phthalate] | – | – | – | further reduction of hemolysis | Reduced amounts of hemolysis | reduces the number of erythrocytes that lysed
